These results are taken from ChEMBL document CHEMBL1140979, “Synthesis and antiamoebic activity of metronidazole thiosemicarbazone analogues” (Eur J Med Chem, 2008).

pIC50: −log10 of the molar value.

This assay has as its system Entamoeba histolytica. Briefly: Antiamoebic activity against Entamoeba histolytica HM1:IMSS after 72 hrs by microdilution method. The class given is functional, organism-based.
What is called pIC50 is the negative decadic logarithm of the IC50, by convention in mol/L. On to `O=[N+]([O-])c1cnc(/C=C/c2ccc(/C=N/NC(=S)NC3CCCCC3)cc2)n1CCO`, for which the pIC50 was 5.82.
For the compound `Cc1ccc(NC(=S)N/N=C/c2ccc(/C=C/c3ncc([N+](=O)[O-])n3CCO)cc2)cc1`, the pIC50 was 6.25.
To `O=[N+]([O-])c1cnc(/C=C/c2ccc(/C=N/NC(=S)NC3CCCCCCC3)cc2)n1CCO` belongs 6.10; to `O=[N+]([O-])c1cnc(/C=C/c2ccc(/C=N/NC(=S)N3CCC(c4ccccc4)CC3)cc2)n1CCO`, 5.90; to `O=[N+]([O-])c1cnc(/C=C/c2ccc(/C=N/NC(=S)N3CCCCCC3)cc2)n1CCO`, 5.79.
Then `CC1CCN(C(=S)N/N=C/c2ccc(/C=C/c3ncc([N+](=O)[O-])n3CCO)cc2)CC1`, with 5.95; and `O=[N+]([O-])c1cnc(/C=C/c2ccc(/C=N/NC(=S)N3CCCc4ccccc43)cc2)n1CCO`, with 5.93.
Then `O=[N+]([O-])c1cnc(/C=C/c2ccc(/C=N/NC(=S)NCc3ccccc3Cl)cc2)n1CCO`, with 5.44; and `O=[N+]([O-])c1cnc(/C=C/c2ccc(/C=N/NC(=S)N3CCCC3)cc2)n1CCO`, with 5.72; and `CN(Cc1ccccc1)C(=S)N/N=C/c1ccc(/C=C/c2ncc([N+](=O)[O-])n2CCO)cc1`, with 5.63.
Regarding `Cc1ccccc1NC(=S)N/N=C/c1ccc(/C=C/c2ncc([N+](=O)[O-])n2CCO)cc1`, the negative logarithm of the IC50 (pIC50) is 5.80.
